In patent US20240327372A1, “PREPARATION OF PHENE[…] […] STEREOISOMERS THEREOF AND PRECURSORS THEREOF” (priority 2022, published 2024):

Legend:
[1] = target: serotonin transporter (SERT) (Rattus norvegicus (Rat), UniProt P31652); test: Competition radioligand binding, [3H]Citalopram, rat brain membranes; details: for IC50 / Ki: 5-HT transporter; for Ki: Cheng-Prusoff
From the text: Rat brain (Sprague Dawley, 200-250 g) synaptosomes were isolated from midbrain and hindbrain for serotonin transporter assays, striatum for dopamine transporter assays, and hippocampus plus overlying occipital cortex for norepinephrine transporter assays. Radioligands used were: [^3H]Citalopram 81.4 Ci/mmol (PerkinElmer NET1039250UC; Lot No. 2960876). [^3H]WIN35428 82.8 Ci/mmol (PerkinElmer NET1033250UC; Lot No. 2891473). [^3H]Nisoxetine 79.2 Ci/mmol (PerkinElmer NET1084250UC; Lot No. 2970324). Non-specific compounds used were: Citalopram (Tocris Bioscience 1427). JHW007 (Tocris Bioscience 4351). Nomifensine (Abcam ab146004). Test Compounds for the study were: racemic methylone HCl; (R)-methylone HCl; (S)-methylone HCl.
For membrane preparations, rat brains were dissected, tissue was added to ice-cold lysis buffer (50 mM Tris HCl; 5 mM MgCl2; 5 mM EDTA; protease inhibitor cocktail) and homogenized. The homogenate was centrifuged at 100×g for 2 minutes and the supernatant divided into polypropylene Eppendorf tubes. The supernatants were centrifuged at 17,000×g for 10 minutes at 4° C. to re-pellet the cell lysate. The pellet was resuspended in fresh wash buffer (50 mM Tris-HCl; 5 mM MgCl2; 5 mM EDTA) and centrifuged a third time at 17,000×g for 10 minutes at 4° C. The pellet was resuspended in wash buffer containing 10% sucrose as a cryoprotectant, divided into aliquots (0.3 mL) and stored at −80° C. A sample of the homogenate was analyzed for protein content using the MERCK® BCA assay. On the day of the assay, the membrane preparation was thawed and the pellet resuspended in final assay buffer.
Competition binding assays were carried out in 96-well polypropylene plates in a final volume of 250 μL per well. To each well was added 150 μL membranes, 50 μL of test compound, non-specific compound or buffer, and 50 μL radioligand solution in buffer. The plate was incubated at 30° C. for 90 minutes with gentle agitation. The incubation was stopped by vacuum filtration onto presoaked (wash buffer with PEI) GF/C filters using a 96-well FILTERMATE™ harvester, followed by 5 washes with ice-cold wash buffer. Filters were then dried under a warm air stream, sealed in polyethylene, scintillation cocktail added, and the radioactivity counted in a WALLAC® TriLux 1450 MicroBeta counter. For each concentration of drug, non-specific binding was subtracted from total binding to give specific binding. Data was fitted using the non-linear curve fitting routines in PRISM® (Graphpad Software Inc) to determine IC50. Ki was subsequently calculated using the ChengPrusoff equation.

SERT = SERT (Rattus norvegicus (Rat), UniProt P31652); test: [3H]5-HT uptake inhibition in rat brain synaptosomes; assay type: biochemical
Description: Materials used were: Neurotransmitters [3H]5-HT (PerkinElmer, NET498001MC) [^3H]Dopamine (PerkinElmer, NET673250UC) [^3H]Norepinephrine (PerkinElmer, NET377250UC); Test Compounds Racemic methylone HCl (Merck, M-140); (R)-methylone HCl (Pisgah Labs); (S)-methylone HCl (Pisgah Labs); Reference Compounds Citalopram (Tocris Bioscience 1427). JHW007 (Tocris Bioscience 4351). Nomifensine (Abcam ab146004).
Synaptosomes were prepared from Sprague Dawley (200-250 g) rat brain regions (hippocampus for NE, striatum for DA and midbrain for 5-HT) using standard protocols. Tissues were dissected, added to sucrose buffer (0.32 M), homogenized with a dounce-homogenizer and centrifuged at 100×g to remove cells and debris. Supernatant was collected and centrifuged 17,000×g for 10 minutes at 4° C. to pellet the synaptosomes. The pellet was resuspended in fresh assay buffer.
Uptake assays were carried out in 96-well plates in a final volume of 250 μL per well. To each well was added 150 μL synaptosomes, 50 μL test, non-specific compound or buffer alone. The plate was incubated at 30° C. for 30 minutes with gentle agitation. 50 μL radiolabeled neurotransmitter in buffer was then added to each well to initiate the uptake. The plate was incubated at 30° C. for a further 5 minutes with gentle agitation. The incubation was stopped by vacuum filtration onto presoaked GF/C filters using a 96-well FilterMate™ harvester, followed by 3 washes with ice-cold wash buffer. Filters were then dried under a warm air stream, sealed in polyethylene, scintillation cocktail added, and the radioactivity counted in a Wallac® TriLux 1450 MicroBeta counter.
For each concentration of drug, non-specific uptake was subtracted from total uptake to give specific uptake. Data was fitted using the non-linear curve fitting routines in Prism® (Graphpad Software Inc) to determine IC50.

DAT = DAT (Rattus norvegicus (Rat), UniProt P23977); test: DA release study; assay type: biochemical
hKCNQ1/hminK = hKCNQ1/hminK (Homo sapiens (Human), UniProt P51787); test: hKCNQ1/hminK Potassium Channel Assay, Qube APC; assay type: cell-based; details: KCNQ1/mink, Antagonist mode, test compound
Description: (§1) Electrophysiological assays were conducted to profile three compounds ((R)-methylone, (S)-methylone, or racemic methylone) for activities on the ion channel targets specified below using the Qube electrophysiological platform. Where presented, IC50 values were determined by a non-linear, least squares regression analysis. Reference standards were run as an integral part of each assay to ensure the validity of the results obtained.
(§2) Ion Channels tested were Eurofins Panel Part Number: CPROFullQB2DR Voltage-Gated Sodium: HEK-Nav1.5 (Peak), HEK-Nav1.5 (Late, Antagonist) Voltage-Gated Potassium: HEK-Kv4.3/KChIP2, CHO-hERG, CHO-KCNQ1/minK Voltage-Gated Calcium: HEK-Cav1.2 Inward-Rectifying Voltage-Gated Potassium: HEK-Kir2.1.
hKCNQ1/hminK Potassium Channel Assay—Qube APC After whole cell configuration is achieved, the cells are held at −80 mV. KCNQ1/minK currents are evoked by a 1000 ms pulse from −80 mV to 60 mV followed by a ramp from 60 mV to −80 mV over 115 ms with the outward peak currents measured upon depolarization of the cell membrane. This paradigm is delivered once every 15 s to monitor the current amplitude.

cardiac ion channels = test: In vitro cardiovascular safety screening test (ion channel panel, overall); assay type: cell-based, human; details: whole panel
Description: An in vitro cardiovascular safety screening test was run to investigate the effects of racemic methylone and two methylone stereoisomers ((R)-methylone and (S)-methylone) on selected ion channels critically linked to cardiovascular function and activity.
as §1, §2

Row | Compound | IC50 [1] [µM] | Ki [1] [µM] | IC50 (SERT) [µM] | EC50 (DAT) [µM] | Estimated IC50 (hKCNQ1/hminK) | Effect on the cardiac ion channels tested (cardiac ion channels) | Potency relative to racemic methylone ([1]; SERT binding)
1 | CN[C@@H](C)C(=O)c1ccc2c(c1)OCO2 [(S)-methylone] | 6.52 | 3.95 | 0.395 | 3.28 | N/C (N/C indicates observed mean inhibition was <25%) | do not directly inhibit the activity of cardiac channels | 
2 | CN[C@H](C)C(=O)c1ccc2c(c1)OCO2 [(R)-methylone] | 34.7 | 21.1 | 7.62 | 4.77 | N/C (N/C indicates observed mean inhibition was <25%) | do not directly inhibit the activity of cardiac channels | approximately three-fold less potent
